Measurements: patent US9067974B2, “Polymyxin derivatives and uses thereof” (priority 2006, dated 2015)
Several values for one entry are separate records, joined by “and”; a condition that tells them apart may be missing. Equal values may be shown once.

Tests used:
P. mirabilis ATCC29906 = test: Well diffusion growth inhibition on LB agar plates (direct antibacterial activity); assay type: cell-based, Proteus mirabilis
Method: (§1) From an overnight-grown culture of IH3080 on LB agar, a suspension of approx. 10^8 cells/ml was prepared in 0.9% NaCl. Aliquots of this suspension were then pipetted on the agar plates and the plates were gently shaken to spread the suspension evenly on the entire surface of the plate. Thereafter, the unabsorbed part of the suspension was removed by using a Pasteur pipette. After the surface had dried, small wells (diameter, 2 mm) were drilled on the plates (five wells per plate) by using a sterile sharp-edged narrow metal tube, single-use pipette tip, and vacuum suction. Samples (4 μl and 10 μl) of the peptide solution in 0.9% NaCl (at concentrations of 1 μg/ml and 0.1 μg/ml) were then pipetted to the wells and the sample fluids were allowed to absorb. Controls included 0.9% NaCl solution without the compound to be tested. The plates were then incubated for 18 h at 37° C. whereafter the diameters of growth inhibition zones around each well were measured; the diameter of the well itself was not reduced. Finally, the diameters were converted to surface areas of growth inhibition (in square mm).
(§2) The susceptibility of eleven Gram-negative bacterial strains (nine different species) to NAB734 and polymyxin B was compared by using the susceptibility determination method described in Example 2. The strains included those belonging to the species of Serratia marcescens and Proteus mirabilis, both species generally known to be resistant to polymyxin. Furthermore, the susceptibility determination was also performed by using the Gram-positive bacterium, Staphylococcus aureus, also generally known to be polymyxin-resistant. Ten of the strains originated from ATCC (American Type Culture Collection, Manassas, Va., U.S.A.), and one from CCUG (Culture Collection of University of Gothenburg, Sweden). The source of E. coli IH3080 has been described in Example 2. Polymyxin B sulfate was from Sigma-Aldrich (St. Louis, Mo., USA).

K. pneumoniae ATCC13883 = test: as above; assay type: cell-based, Klebsiella pneumoniae
Method: as §1, §2

E. coli ATCC25922 = test: as above; assay type: cell-based, Escherichia coli
Method: as §1, with “Samples (4 μl and 10 μl) of the peptide solution in 0.9% NaCl (at concentrations of 1 μg/ml and 0.1 μg/ml) were then pipetted to the wells and the sample fluids were allowed to absorb.” left out
as §2

E. coli IH3080 = test: Sensitization to rifampin: well diffusion growth inhibition on LB plates containing rifampin; assay type: cell-based, Escherichia coli; details: 4 μg of compound
[1] = tested on: Ps. aeruginosa ATCC 27853; test: as above; assay type: cell-based, Pseudomonas aeruginosa; details: 4 μg of compound
A. baumannii ATCC 19606 = test: as above; assay type: cell-based, Acinetobacter baumannii; details: 4 μg of compound
E. coli IH3080 (K1:O18) = test: Well diffusion growth inhibition on LB agar plates (direct antibacterial activity); assay type: cell-based, Escherichia coli
Procedure, shortened: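 Growth inhibition of encapsulated E. coli IH3080 (K1:O18) was measured by well diffusion on LB agar plates. A suspension of about 10^8 cells/ml in 0.9% NaCl, made from an overnight LB agar culture, was spread over the plates and the excess removed. Once dry, five 2 mm wells were drilled per plate and test solutions added, with 0.9% NaCl as control. After 18 h at 37° C, inhibition zone diameters were measured and converted to surface areas in square mm.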

S. aureus ATCC 25923 = test: as above; assay type: cell-based, Staphylococcus aureus
Method: as §1, with “Samples (4 μl and 10 μl) of the peptide solution in 0.9% NaCl (at concentrations of 1 μg/ml and 0.1 μg/ml) were then pipetted to the wells and the sample fluids were allowed to absorb.” left out
as §2

[2] = tested on: Pseudomonas aeruginosa ATCC 27853; test: as above; assay type: cell-based; details: Ps. aeruginosa ATCC 27853
Procedure, shortened: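 Pseudomonas aeruginosa ATCC 27853 was tested for direct antibacterial susceptibility by agar well diffusion. A suspension of about 10^8 cells/ml in 0.9% NaCl was spread over LB agar and the excess removed. After drying, 2 mm wells were drilled and filled with compound dissolved in 0.9% NaCl, with NaCl alone as control. Plates were incubated 18 h at 37° C, and inhibition zone diameters were measured and converted to areas in square mm.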

[3] = tested on: Acinetobacter baumannii ATCC 19606; test: as above; assay type: cell-based; details: A. baumannii ATCC 19606
Procedure, shortened: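 Direct antibacterial activity against Acinetobacter baumannii ATCC 19606 was measured by agar well diffusion on LB plates. The plates were flooded with a suspension of approx. 10^8 cells/ml in 0.9% NaCl, and the excess was removed. Once the surface dried, five wells of 2 mm diameter were drilled per plate. The wells were filled with test compound dissolved in 0.9% NaCl, with plain 0.9% NaCl as control. After 18 h at 37° C., inhibition zone diameters were measured and converted to growth inhibition areas in square mm.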

E. cloacae ATCC23355 = test: as above; assay type: cell-based, Enterobacter cloacae
Method: as §1, §2

K. pneumoniae CCUG45421 = test: as above; assay type: cell-based, Klebsiella pneumoniae
Method: as §1, with “Samples (4 μl and 10 μl) of the peptide solution in 0.9% NaCl (at concentrations of 1 μg/ml and 0.1 μg/ml) were then pipetted to the wells and the sample fluids were allowed to absorb.” left out
as §2

C. freundii ATCC8090 = test: as above; assay type: cell-based, Citrobacter freundii
Method: as §1, §2

K. oxytoca ATCC13182 = test: as above; assay type: cell-based, Klebsiella oxytoca
Method: as §1, §2

S. marcescens ATCC8100 = test: as above; assay type: cell-based, Serratia marcescens
Method: as §1, §2

## OA-Thr-DSer-cy[Dab-Dab-DPhe-Thr-Dab-Dab-Thr-] [NAB 734]
P. mirabilis ATCC29906; 4 μg per well
  Antibacterial activity (growth inhibition area around a well): 0 square millimeters
P. mirabilis ATCC29906; 10 μg per well
  Antibacterial activity (growth inhibition area around a well): 0 square millimeters
K. pneumoniae ATCC13883; 4 μg per well
  Antibacterial activity (growth inhibition area around a well): 64 square millimeters
K. pneumoniae ATCC13883; 10 μg per well
  Antibacterial activity (growth inhibition area around a well): 113 square millimeters
E. coli ATCC25922; 4 μg per well
  Antibacterial activity (growth inhibition area around a well): 133 square millimeters
E. coli ATCC25922; 10 μg per well
  Antibacterial activity (growth inhibition area around a well): 177 square millimeters
E. coli IH3080; rifampin 0 μg/ml
  Antibacterial activity in the presence of rifampin (growth inhibition area around a well): 113 square millimeters
E. coli IH3080; rifampin 0.1 μg/ml
  Antibacterial activity in the presence of rifampin (growth inhibition area around a well): 154 square millimeters
E. coli IH3080; rifampin 1.0 μg/ml
  Antibacterial activity in the presence of rifampin (growth inhibition area around a well): 201 square millimeters
[1]; rifampin 0 μg/ml
  Antibacterial activity in the presence of rifampin (growth inhibition area around a well): 13 square millimeters
[1]; rifampin 0.1 μg/ml
  Antibacterial activity in the presence of rifampin (growth inhibition area around a well): 20 square millimeters
[1]; rifampin 0.3 μg/ml
  Antibacterial activity in the presence of rifampin (growth inhibition area around a well): 20 square millimeters
A. baumannii ATCC 19606; rifampin 0 μg/ml
  Antibacterial activity in the presence of rifampin (growth inhibition area around a well): 38 square millimeters
A. baumannii ATCC 19606; rifampin 0.1 μg/ml
  Antibacterial activity in the presence of rifampin (growth inhibition area around a well): 201 square millimeters
A. baumannii ATCC 19606; rifampin 0.3 μg/ml
  Antibacterial activity in the presence of rifampin (growth inhibition area around a well): 283 square millimeters
E. coli IH3080 (K1:O18); 4 μg of compound per well
  Antibacterial activity (growth inhibition area around a well): 113 square millimeters
E. coli IH3080 (K1:O18); 10 μg of compound per well
  Antibacterial activity (growth inhibition area around a well): 177 square millimeters and 154 square millimeters
S. aureus ATCC 25923; 4 μg per well
  Antibacterial activity (growth inhibition area around a well): 0 square millimeters
S. aureus ATCC 25923; 10 μg per well
  Antibacterial activity (growth inhibition area around a well): 0 square millimeters
[2]; 4 μg per well
  Antibacterial activity (growth inhibition area around a well): 13 square millimeters
[2]; 10 μg per well
  Antibacterial activity (growth inhibition area around a well): 50 square millimeters
[3]; 4 μg per well
  Antibacterial activity (growth inhibition area around a well): 38 square millimeters and 57 square millimeters
[3]; 10 μg per well
  Antibacterial activity (growth inhibition area around a well): 95 square millimeters and 79 square millimeters
E. cloacae ATCC23355; 4 μg per well
  Antibacterial activity (growth inhibition area around a well): 133 square millimeters
E. cloacae ATCC23355; 10 μg per well
  Antibacterial activity (growth inhibition area around a well): 177 square millimeters
K. pneumoniae CCUG45421; 4 μg per well
  Antibacterial activity (growth inhibition area around a well): 64 square millimeters
K. pneumoniae CCUG45421; 10 μg per well
  Antibacterial activity (growth inhibition area around a well): 104 square millimeters
C. freundii ATCC8090; 4 μg per well
  Antibacterial activity (growth inhibition area around a well): 133 square millimeters
C. freundii ATCC8090; 10 μg per well
  Antibacterial activity (growth inhibition area around a well): 177 square millimeters
K. oxytoca ATCC13182; 4 μg per well
  Antibacterial activity (growth inhibition area around a well): 95 square millimeters
K. oxytoca ATCC13182; 10 μg per well
  Antibacterial activity (growth inhibition area around a well): 143 square millimeters
S. marcescens ATCC8100; 4 μg per well
  Antibacterial activity (growth inhibition area around a well): 0 square millimeters
S. marcescens ATCC8100; 10 μg per well
  Antibacterial activity (growth inhibition area around a well): 0 square millimeters

## Polymyxin B nonapeptide [reference compound]
E. coli IH3080; rifampin 0 μg/ml
  Antibacterial activity in the presence of rifampin (growth inhibition area around a well): 0 square millimeters
E. coli IH3080; rifampin 0.1 μg/ml
  Antibacterial activity in the presence of rifampin (growth inhibition area around a well): 20 square millimeters
E. coli IH3080; rifampin 1.0 μg/ml
  Antibacterial activity in the presence of rifampin (growth inhibition area around a well): 113 square millimeters
[1]; rifampin 0 μg/ml
  Antibacterial activity in the presence of rifampin (growth inhibition area around a well): 113 square millimeters
[1]; rifampin 0.1 μg/ml
  Antibacterial activity in the presence of rifampin (growth inhibition area around a well): 113 square millimeters
[1]; rifampin 0.3 μg/ml
  Antibacterial activity in the presence of rifampin (growth inhibition area around a well): 154 square millimeters
A. baumannii ATCC 19606; rifampin 0 μg/ml
  Antibacterial activity in the presence of rifampin (growth inhibition area around a well): 0 square millimeters
A. baumannii ATCC 19606; rifampin 0.1 μg/ml
  Antibacterial activity in the presence of rifampin (growth inhibition area around a well): 133 square millimeters
A. baumannii ATCC 19606; rifampin 0.3 μg/ml
  Antibacterial activity in the presence of rifampin (growth inhibition area around a well): 154 square millimeters
E. coli IH3080 (K1:O18); 4 μg of compound per well
  Antibacterial activity (growth inhibition area around a well): 0 square millimeters
E. coli IH3080 (K1:O18); 10 μg of compound per well
  Antibacterial activity (growth inhibition area around a well): 0 square millimeters
[2]; 4 μg per well
  Antibacterial activity (growth inhibition area around a well): 113 square millimeters
[2]; 10 μg per well
  Antibacterial activity (growth inhibition area around a well): 177 square millimeters
[3]; 4 μg per well
  Antibacterial activity (growth inhibition area around a well): 0 square millimeters
[3]; 10 μg per well
  Antibacterial activity (growth inhibition area around a well): 0 square millimeters

## Polymyxin B sulfate [reference compound]
P. mirabilis ATCC29906; 4 μg per well
  Antibacterial activity (growth inhibition area around a well): 0 square millimeters
P. mirabilis ATCC29906; 10 μg per well
  Antibacterial activity (growth inhibition area around a well): 0 square millimeters
K. pneumoniae ATCC13883; 4 μg per well
  Antibacterial activity (growth inhibition area around a well): 79 square millimeters
K. pneumoniae ATCC13883; 10 μg per well
  Antibacterial activity (growth inhibition area around a well): 113 square millimeters
E. coli ATCC25922; 4 μg per well
  Antibacterial activity (growth inhibition area around a well): 95 square millimeters
E. coli ATCC25922; 10 μg per well
  Antibacterial activity (growth inhibition area around a well): 133 square millimeters
E. coli IH3080 (K1:O18); 4 μg of compound per well
  Antibacterial activity (growth inhibition area around a well): 95 square millimeters
E. coli IH3080 (K1:O18); 10 μg of compound per well
  Antibacterial activity (growth inhibition area around a well): 133 square millimeters
S. aureus ATCC 25923; 4 μg per well
  Antibacterial activity (growth inhibition area around a well): 0 square millimeters
S. aureus ATCC 25923; 10 μg per well
  Antibacterial activity (growth inhibition area around a well): 0 square millimeters
[2]; 4 μg per well
  Antibacterial activity (growth inhibition area around a well): 95 square millimeters
[2]; 10 μg per well
  Antibacterial activity (growth inhibition area around a well): 133 square millimeters
[3]; 4 μg per well
  Antibacterial activity (growth inhibition area around a well): 113 square millimeters
[3]; 10 μg per well
  Antibacterial activity (growth inhibition area around a well): 154 square millimeters
E. cloacae ATCC23355; 4 μg per well
  Antibacterial activity (growth inhibition area around a well): 95 square millimeters
E. cloacae ATCC23355; 10 μg per well
  Antibacterial activity (growth inhibition area around a well): 143 square millimeters
K. pneumoniae CCUG45421; 4 μg per well
  Antibacterial activity (growth inhibition area around a well): 95 square millimeters
K. pneumoniae CCUG45421; 10 μg per well
  Antibacterial activity (growth inhibition area around a well): 133 square millimeters
C. freundii ATCC8090; 4 μg per well
  Antibacterial activity (growth inhibition area around a well): 95 square millimeters
C. freundii ATCC8090; 10 μg per well
  Antibacterial activity (growth inhibition area around a well): 154 square millimeters
K. oxytoca ATCC13182; 4 μg per well
  Antibacterial activity (growth inhibition area around a well): 79 square millimeters
K. oxytoca ATCC13182; 10 μg per well
  Antibacterial activity (growth inhibition area around a well): 104 square millimeters
S. marcescens ATCC8100; 4 μg per well
  Antibacterial activity (growth inhibition area around a well): 0 square millimeters
S. marcescens ATCC8100; 10 μg per well
  Antibacterial activity (growth inhibition area around a well): 0 square millimeters
